Reference: patent US20100286217A1, “STABLE, LOW VOC, LOW VISCOUS BIOCIDAL FORMULATIONS AND METHOD OF MAKING SUCH FORMULATIONS” (priority 2008, published 2010)

Assay: Dissolution of IPBC in MPEG-350/DMSO versus PEG-400/DMSO
Assay type: physicochemical
Settings: 60% IPBC solution
Procedure: In a 100 ml beaker is added about 25 ml of solvent, and the weight is recorded to four significant digits. The beaker is heated to 40-60° C. (depending on the active being tested) in a water bath. The solute of interest is added stepwise (all aliquot weights are recorded to four significant digits) until saturation is achieved. Once the solid remains undissolved, back-titration with known weights of solvent are performed until the solution is clear.
This example compares the viscosity and VOC content of 55 and 60% IPBC formulations in MPEG-350/DMSO and PEG-400/DMSO. For the 55% IPBC solutions, 10% DMSO is used. For the 60% solutions, only 10% DMSO is required for complete dissolution of the IPBC when MPEG is used, however, 15% DMSO is required for complete dissolution of the IPBC when PEG 400 is used. Viscosity and VOC data are in Table 6.

Question: With `CCCCNC(=O)OCC#CI` [IPBC, 3-iodo-2-propynyl butyl carbamate] as the molecule, how does the “DMSO required for complete dissolution of the IPBC” value (MPEG used) read?
Answer: 10%

Question: And the “DMSO required for complete dissolution of the IPBC” value (PEG 400 used)?
Answer: 15%
